# Values of other authors in patent US20260053764A1, “COMPOSITION FOR PREVENTING DETERIORATION IN COGNITIVE FUNCTION AND/OR IMPROVING COGNITIVE FUNCTION” (PHARMA FOODS INTERNATIONAL CO., LTD., priority 2020, published 2026).
# Test system: cognitive function of elderly people
# Settings: continuous ingestion for a year; cited from earlier work
smiles,measurement,value
CC1=C[C@H](O)CC(C)(C)[C@H]1/C=C/C(C)=C/C=C/C(C)=C/C=C/C=C(C)/C=C/C=C(C)/C=C/C1=C(C)C[C@@H](O)CC1(C)C [lutein],reasoning measured by the CNS Vital Signs examination method,no improvement
CC1=C(/C=C/C(C)=C/C=C/C(C)=C/C=C/C=C(C)/C=C/C=C(C)/C=C/C2=C(C)C[C@@H](O)CC2(C)C)C(C)(C)C[C@H](O)C1 [zeaxanthin],reasoning measured by the CNS Vital Signs examination method,no improvement
